In patent US5543415A, “Antidepressants” (Kyowa Hakko Kogyo Co., Ltd., priority 1992, dated 1996):
Where two headings read alike, the source gives them in different places.

Assays:
[1] = system: ddY-strain male mice; assay: Acute Toxicity Test (minimum lethal dose, oral); type: in vivo; conditions: seven days after administration
Protocol: Test compounds were orally administered to groups of ddY-strain male mice weighing 20±1 g, each group consisting of three mice. Seven days after the administration, minimum lethal dose (MLD) of each compound was determined by observing the mortality.

[2] = system: clonidine-induced aggressive behavior; assay: Effect on Clonidine-Induced Aggressive Behavior (number of biting attacks during 30 minutes); type: in vivo, male ddY mice; conditions: po; for Number of the Biting Attacks (mean ± S.E.M.), Test Compound-Treated Group: 60 min before clonidine 20 mg/kg ip, 30 min count
Protocol: The effect of a test compound on the aggressive behavior induced by intraperitoneal administration of clonidine was investigated. […] The experiment was performed by using several groups of male ddY mice (weighing 20 to 25 g, Japan SLC), each group consisting of two mice. The test compound was suspended in injectable distilled water (Otsuka Pharmaceutical Co., Ltd.) containing Tween 80 [polyoxyethylene (20) sorbitan monooleate]. Clonidine hydrochloride (Sigma Co.) was dissolved in physiological saline solution (Otsuka Pharmaceutical Co., Ltd.). The test compound suspension and the control suspension were orally administered to separate groups of the mice (0.1 ml per 10 g of body weight). Sixty minutes after the oral administration of the test compound, clonidine hydrochloride (20 mg/kg) was intraperitoneally injected. The number of biting attacks during 30 minutes after clonidine treatment was counted. The effect of the compound was evaluated by comparing the average number of biting attacks of the test compound-administered groups with that of control groups (Statistical comparison: Student's t-test).

[3] = Mus musculus, 10 mg/kg, read-out: Number of the Attacks of Test Compound-Treated Group/Number of the Attacks of Control Group
[4] = Mus musculus, 0.63 mg/kg, read-out: Number of the Attacks of Test Compound-Treated Group/Number of the Attacks of Control Group
[5] = Mus musculus, 2.5 mg/kg, read-out: Number of the Attacks of Test Compound-Treated Group/Number of the Attacks of Control Group

SMILES | MLD (minimum lethal dose) [1] [mg/kg] | Number of the Biting Attacks (mean ± S.E.M.), Test Compound-Treated Group ([2]; 10 mg/kg) | response vs control in vivo at 10 mg/kg [2, 3] [%] | also measured
CCn1c(=O)c2c(nc(/C=C/c3ccc(OC)c(C)c3C)n2C)n(CC)c1=O [Compound 82, (E)-1,3-Diethyl-8-(4-methoxy-2,3-dimethylstyryl)-7-methylxanthine] | > 300 | 61.8 ± 11.89 | 800 | Number of the Biting Attacks (mean ± S.E.M.), Test Compound-Treated Group ([2]; 2.5 mg/kg): 59.0 ± 13.31; response vs control in vivo at 2.5 mg/kg ([2]; Mus musculus, read-out: Number of the Attacks of Test Compound-Treated Group/Number of the Attacks of Control Group): 910%
CCn1c(=O)c2c(nc(/C=C/c3cccc(F)c3C)n2C)n(CC)c1=O [Compound 181, (E)-1,3-Diethyl-8-(3-fluoro-2-methylstyryl)-7-methylxanthine] | > 100 | 49.5 ± 9.09 | 800 | –
C=CCn1c(=O)c2c(nc(/C=C/c3ccc(OC)c(OC)c3)n2C)n(CC=C)c1=O [Compound 70, (E)-1,3-Diallyl-8-(3,4-dimethoxystyryl)-7-methylxanthine] | > 100 | 60.3 ± 11.71 | 790 | –
CCn1c(=O)c2c(nc(/C=C/c3cc(OC)cc(OC)c3)n2C)n(CC)c1=O [Compound 130, (E)-8-(3,5-Dimethoxystyryl)-1,3-diethyl-7-methyl-xanthine] | > 300 | 52.2 ± 11.79 | 480 | –
CCn1c(=O)c2c(nc(/C=C/c3ccc(OC)c(OC)c3)n2C)n(CC)c1=O [Compound 74, (E)-8-(3,4-Dimethoxystyryl)-1,3-diethyl-7-methylxanthine] | > 300 | 73.3 ± 8.75 | – | Number of the Biting Attacks (mean ± S.E.M.), Test Compound-Treated Group ([2]; 0.63 mg/kg): 23.2 ± 5.19; Number of the Biting Attacks (mean ± S.E.M.), Test Compound-Treated Group ([2]; 2.5 mg/kg): 51.3 ± 8.70; response vs control in vivo at 0.63 mg/kg [2, 4]: 380%; response vs control in vivo at 2.5 mg/kg [2, 5]: 840%
CCOc1ccc(/C=C/c2nc3c(c(=O)n(CC)c(=O)n3CC)n2C)cc1 [Compound 124, (E)-8-(4-Ethoxystyryl)-1,3-diethyl-7-methylxanthine] | > 300 | 50.5 ± 17.7 | – | Number of the Biting Attacks (mean ± S.E.M.), Test Compound-Treated Group ([2]; 2.5 mg/kg): 85.8 ± 12.41
CCn1c(=O)c2c(nc(/C=C/c3ccc(F)cc3)n2C)n(CC)c1=O [Compound 150, (E)-1,3-Diethyl-8-(4-fluorostyryl)-7-methylxanthine] | > 100 | 42.1 ± 10.18 | – | –
CCn1c(=O)c2c(nc(/C=C/c3cc(OC)c(OC)c(OC)c3)n2C)n(CC)c1=O [Compound 4, (E)-1,3-diethyl-7-methyl-8-(3,4,5-trimethoxystyryl)xanthine] | > 300 | 51.3 ± 9.37 | – | Number of the Biting Attacks (mean ± S.E.M.), Test Compound-Treated Group ([2]; 0.63 mg/kg): 25.3 ± 4.51; Number of the Biting Attacks (mean ± S.E.M.), Test Compound-Treated Group ([2]; 2.5 mg/kg): 36.9 ± 7.81; response vs control in vivo at 0.63 mg/kg [2, 4]: 970%; response vs control in vivo at 2.5 mg/kg [2, 5]: 540%
CCCCOc1ccc(/C=C/c2nc3c(c(=O)n(CC)c(=O)n3CC)n2C)cc1 [Compound 148, (E)-8-(4-Butoxystyryl)-1,3-diethyl-7-methylxanthine] | > 100 | 46.3 ± 9.40 | – | –
CCCOc1ccc(/C=C/c2nc3c(c(=O)n(CC)c(=O)n3CC)n2C)cc1 [Compound 126, (E)-1,3-Diethyl-7-methyl-8-(4-propoxystyryl)xanthine] | > 300 | 80.0 ± 13.93 | – | –
CCn1c(=O)c2c(nc(/C=C/c3ccc(OC)cc3OC)n2C)n(CC)c1=O [Compound 78, (E)-8-(2,4-Dimethoxystyryl)-1,3-diethyl-7-methylxanthine] | > 300 | 32.1 ± 7.31 | 610 | –
CCn1c(=O)c2c(nc(/C=C/c3ccc(OCc4ccccc4)cc3)n2C)n(CC)c1=O [Compound 185, (E)-8-(4-Benzyloxystyryl)-1,3-diethyl-7-methylxanthine] | > 100 | 46.9 ± 14.00 | 620 | –
CCCn1c(=O)c2c(nc(/C=C/c3ccc(OC)cc3)n2C)n(CCC)c1=O [Compound 6, (E)-8-(4-Methoxystyryl)-7-methyl-1,3-dipropylxanthine] | > 300 | 83.7 ± 10.95 | – | –
CCn1c(=O)c2c(nc(/C=C/c3ccc(OC)c(OC)c3OC)n2C)n(CC)c1=O [Compound 80, (E)-1,3-Diethyl-7-methyl-8-(2,3,4-trimethoxystyryl)xanthine] | > 300 | 67.5 ± 9.35 | – | Number of the Biting Attacks (mean ± S.E.M.), Test Compound-Treated Group ([2]; 0.63 mg/kg): 30.3 ± 7.00; Number of the Biting Attacks (mean ± S.E.M.), Test Compound-Treated Group ([2]; 2.5 mg/kg): 59.3 ± 12.37; response vs control in vivo at 0.63 mg/kg [2, 4]: 470%
CCn1c(=O)c2c(nc(/C=C/c3ccc(O)cc3)n2C)n(CC)c1=O [Compound 184, (E)-1,3-Diethyl-8-(4-hydroxystyryl)-7-methylxanthine] | > 100 | 77.1 ± 11.47 | – | –
CCCn1c(=O)c2c(nc(/C=C/c3ccccc3)n2C)n(CCC)c1=O [Compound 3, (E)-7-Methyl-1,3-dipropyl-8-styrylxanthine] | > 300 | 26.1 ± 5.42 | 340 | –
COc1cc(/C=C/c2nc3c(c(=O)n(C)c(=O)n3C)n2C)cc(OC)c1OC [Compound 2, (E)-8-(3,4,5-trimethoxystyryl)caffeine] | > 300 | – | – | Number of the Biting Attacks (mean ± S.E.M.), Test Compound-Treated Group ([2]; 1.25 mg/kg): 29.0 ± 7.9; response vs control in vivo at 1.25 mg/kg ([2]; Mus musculus, 1.25 mg/kg, read-out: Number of the Attacks of Test Compound-Treated Group/Number of the Attacks of Control Group): 470%
CCCn1c(=O)c2c(nc(/C=C/c3ccc(OC)c(OC)c3)n2C)n(CCC)c1=O [Compound 1, (E)-8-(3,4-Dimethoxystyryl)-7-methyl-1,3-dipropylxanthine] | > 300 | – | – | Number of the Biting Attacks (mean ± S.E.M.), Test Compound-Treated Group ([2]; 2.5 mg/kg): 27.5 ± 7.3; response vs control in vivo at 2.5 mg/kg [2, 5]: 480%
CCn1c(=O)c2c(nc(/C=C/c3ccc(OC)c(F)c3)n2C)n(CC)c1=O [Compound 173, (E)-1,3-Diethyl-8-(3-fluoro-4-methoxystyryl)-7-methylxanthine] | > 100 | 46.8 ± 14.89 | 620 | –
CCn1c(=O)c2c(nc(/C=C/c3ccc(C)cc3)n2C)n(CC)c1=O [Compound 152, (E)-1,3-Diethyl-7-methyl-8-(4-methylstyryl)xanthine] | > 100 | 82.6 ± 23.07 | 670 | –
CCn1c(=O)c2c(nc(/C=C/c3ccccc3F)n2C)n(CC)c1=O [Compound 168, (E)-1,3-Diethyl-8-(2-fluorostyryl)-7-methylxanthine] | > 100 | 53.9 ± 8.59 | 710 | –
CCn1c(=O)c2c(nc(/C=C/c3ccc(OC)c(C)c3)n2C)n(CC)c1=O [Compound 175, (E) -1,3-Diethyl-8-(4-methoxy-3-methylstyryl)-7-methylxanthine] | > 100 | 49.1 ± 15.59 | 790 | –
CCCn1c(=O)c2c(nc(/C=C/c3ccc(OC)c(OC)c3OC)n2C)n(CCC)c1=O [Compound 22, (E)-7-Methyl-1,3-dipropyl-8-(2,3,4-trimethoxystyryl)xanthine] | > 300 | 33.1 ± 5.18 | 680 | –
C=CCn1c(=O)c2c(nc(/C=C/c3cc(OC)c(OC)c(OC)c3)n2C)n(CC=C)c1=O [Compound 7, (E)-1,3-Diallyl-7-methyl-8-(3,4,5-trimethoxystyryl)xanthine] | > 300 | – | – | Number of the Biting Attacks (mean ± S.E.M.), Test Compound-Treated Group ([2]; 2.5 mg/kg): 40.1 ± 8.36; response vs control in vivo at 2.5 mg/kg [2, 5]: 640%
CCn1c(=O)c2c(nc(/C=C/c3ccc(OC)c(Br)c3)n2C)n(CC)c1=O [Compound 114, (E)-8-(3-Bromo-4-methoxystyryl)-1,3-diethyl-7-methylxanthine] | > 100 | 37.8 ± 8.66 | – | –
